PubChem BioAssay AID1963971 (Molecular Pharmacology Branch, DTP, NCI, 2024)
“And” between values parts separate entries of the source, which are not always exact repeats. Identical values can stand only once.

Test system: 953936-095-R-J2-PDC spheroids with HUVEC/MSC, viability
Test: Anticancer human tumor 953936-095-R-J2-PDC patient-derived cervical squamous cell carcinoma cell line growth inhibition [PI3K]
Conditions: for viability, T/C: stronger effect = lower value
Source text: Combinatorial screen of targeted agents with the PI3K inhibitors inavolisib, alpelisib, duvelisib, and copanlisib in multi-cell type tumor spheroids
A high-throughput screen of multi-cell type tumor spheroids was designed to identify active combinations of targeted small molecules and PI3K pathway inhibitors. Complex spheroids include a stromal component modeled by human endothelial cells (HUVEC) and fibroblasts modeled by human mesenchymal stem cells (MSCs). The concentration ranges selected for each drug and investigational agent were based upon clinically achievable concentrations if the clinical Cmax of the agent was known.
Compounds. The drugs and investigational agents: inavolisib (NSC800729), alpelisib (NSC765974), duvelisib (NSC772469), copanlisib (NSC816437), ipatasertib (NSC767898), afuresertib (NSC778305), talazoparib (NSC767125), sapanisertib (NSC764658), selumetinib (NSC741078), tovorafenib (DAY101, NSC766906), vemurafenib (NSC761431), ravoxertinib (NSC781343), sotorasib (NSC818433), MRTX1133 (NSC 836407), abemaciclib (NSC 768073), palbociclib (NSC758247), venetoclax (NSC 766270), SY5609 (NSC837396), enzalutamide (NSC755605), and darolutamide (NSC825331), were obtained from the National Cancer Institute (NCI) Developmental Therapeutics Program Chemical Repository. The FDA-approved anticancer drug set is available from the NCI Developmental Therapeutics Program. […] The stock solutions were prepared in dimethyl sulfoxide (DMSO, Sigma-Aldrich, St. Louis, MO, cat. D2650) at 800-fold the tested concentration and stored at -70 degrees C prior to their use. All drugs and investigational agents were tested over a range starting from a high concentration at or near the clinical Cmax and decreasing in half-log increments. If the clinical Cmax for an agent had not been determined, the highest concentration tested was 10 microM.
Cell Culture. All cells were maintained in an incubator at 37 degrees C and 5% CO2 with 95% humidity. The PDC lines were cultured according to standard operating procedures established by the NCI PDMR (https://pdmr.cancer.gov/sops/default.htm). All PDCs were thawed and cultured in Matrigel-coated flasks prepared with a working solution of 1X Ham's F-12 nutrient mix, without supplementation (Invitrogen, Waltham, MA, cat. 11765054), 100 U/mL penicillin-streptomycin (Invitrogen, cat. 15140122), and 2.5% Matrigel (Corning Inc., Corning, NY, cat. 354248) for the first three passages. The 354836-022-R-J1-PDC, 475296-252-R-J1-PDC, and 997726-040-R-J2-PDC lines were cultured in 6A media, which includes advanced DMEM/F-12 (Thermo Fisher Scientific, cat. 12634028), 10 mM HEPES (Thermo Fisher Scientific, cat. 15630080), 1X GlutaMAX supplement (Thermo Fisher Scientific, cat. 35050061), 0.1 mg/mL primocin (InvivoGen, San Diego, CA, cat. ant-pm-2), 10% defined fetal bovine serum, heat inactivated (HyClone Laboratories Inc., Logan, UT, cat. SH30070.03HI), 50% L-WRN conditioned media (ATCC, cat. CRL-3276), 1.25 mM N-Acetyl-L-cysteine (Sigma-Aldrich, cat. A9165), 10 mM nicotinamide (Sigma-Aldrich, cat. N0636), 1X B-27 supplement (Thermo Fisher Scientific, cat. 17504044), 1X N-2 supplement (Thermo Fisher Scientific, cat. 17502048), and 10 microM Y-27632 dihydrochloride (Tocris Bioscience, Bristol, United Kingdom, cat. 1254). The 624824-186-R-J2-PDC line was cultured in 6C/Colon 1B media, which includes all 6A media components plus 50 ng/mL human EGF recombinant protein (Thermo Fisher Scientific, cat. PHG0311). […]

[1] = curve of first compound, second compound 0.0316 µM
[2] = curve of first compound, second compound 0.1 µM
[3] = curve of first compound, second compound 0.316 µM
[4] = curve of first compound, second compound 1 µM
[5] = second compound 0.0316 µM, first compound 0.0316 µM
[6] = second compound 0.0316 µM, first compound 0.1 µM
[7] = second compound 0.1 µM, first compound 0.0316 µM
[8] = second compound 0.1 µM, first compound 0.1 µM
[9] = second compound 0.316 µM, first compound 0.0316 µM
[10] = second compound 0.316 µM, first compound 0.1 µM
[11] = second compound 1 µM, first compound 0.0316 µM
[12] = second compound 1 µM, first compound 0.1 µM
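Also: spheroids exposed to compounds for seven days before read-out.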

Cn1ncnc1[C@H]1c2n[nH]c(=O)c3cc(F)cc(c23)N[C@@H]1c1ccc(F)cc1 + Cc1nc(NC(=O)N2CCCC2C(N)=O)sc1-c1ccnc(C(C)(C)C(F)(F)F)c1
IC50 [1]: > 100 nM
IC50 [2]: > 100 nM
IC50 [3]: > 100 nM
IC50 [4]: < 0.316 nM
IC50 (curve of first compound, second compound 3.16 µM): < 0.316 nM
IC50 (curve of first compound, second compound 10 µM): < 0.316 nM
viability, T/C (second compound 0.0316 µM, first compound 0.000316 µM): 91.5%
viability, T/C (second compound 0.0316 µM, first compound 0.001 µM): 94.8%
viability, T/C (second compound 0.0316 µM, first compound 0.00316 µM): 99.5%
viability, T/C (second compound 0.0316 µM, first compound 0.01 µM): 90.9%
viability, T/C [5]: 94.6%
viability, T/C [6]: 95.7%
viability, T/C (second compound 0.1 µM, first compound 0.000316 µM): 86.6%
viability, T/C (second compound 0.1 µM, first compound 0.001 µM): 79.2%
viability, T/C (second compound 0.1 µM, first compound 0.00316 µM): 83.7%
viability, T/C (second compound 0.1 µM, first compound 0.01 µM): 80.9%
viability, T/C [7]: 83.3%
viability, T/C [8]: 81.5%
viability, T/C (second compound 0.316 µM, first compound 0.000316 µM): 63.3%
viability, T/C (second compound 0.316 µM, first compound 0.001 µM): 63.9%
viability, T/C (second compound 0.316 µM, first compound 0.00316 µM): 62.8%
viability, T/C (second compound 0.316 µM, first compound 0.01 µM): 62.5%
viability, T/C [9]: 66.6%
viability, T/C [10]: 58.2%
viability, T/C (second compound 1 µM, first compound 0.000316 µM): 45.1%
viability, T/C (second compound 1 µM, first compound 0.001 µM): 48.6%
viability, T/C (second compound 1 µM, first compound 0.00316 µM): 44.9%
viability, T/C (second compound 1 µM, first compound 0.01 µM): 43.8%
viability, T/C [11]: 43.2%
viability, T/C [12]: 39.6%
viability, T/C (second compound 3.16 µM, first compound 0.000316 µM): 27%
viability, T/C (second compound 3.16 µM, first compound 0.001 µM): 26.2%
viability, T/C (second compound 3.16 µM, first compound 0.00316 µM): 26.4%
viability, T/C (second compound 3.16 µM, first compound 0.01 µM): 26.3%
viability, T/C (second compound 3.16 µM, first compound 0.0316 µM): 26.5%
viability, T/C (second compound 3.16 µM, first compound 0.1 µM): 25.5%
viability, T/C (second compound 10 µM, first compound 0.000316 µM): 11.4%
viability, T/C (second compound 10 µM, first compound 0.001 µM): 10.4%
viability, T/C (second compound 10 µM, first compound 0.00316 µM): 10.1%
viability, T/C (second compound 10 µM, first compound 0.01 µM): 11.6%
viability, T/C (second compound 10 µM, first compound 0.0316 µM): 12.5%
viability, T/C (second compound 10 µM, first compound 0.1 µM): 10.9%

C[C@@H](NC(=O)c1ncnc(N)c1Cl)c1ncc(C(=O)Nc2cc(C(F)(F)F)c(Cl)cn2)s1
viability, T/C (compound 0.0316 µM): 105% (2×) and 98.5% and 118%
viability, T/C (compound 0.1 µM): 104% (3×) and 103%
viability, T/C (compound 0.316 µM): 110% [middle of 4 runs]
viability, T/C (compound 1 µM): 115% [middle of 4 runs]
viability, T/C (compound 3.16 µM): 108% [middle of 4 runs]
viability, T/C (compound 10 µM): 102% [middle of 4 runs]
IC50 (curve of compound): > 10000 nM

C[C@@H](NC(=O)c1ncnc(N)c1Cl)c1ncc(C(=O)Nc2cc(C(F)(F)F)c(Cl)cn2)s1 + COc1c(OCCCN2CCOCC2)ccc2c3n(c(=NC(=O)c4cnc(N)nc4)nc12)CCN3
IC50 (curve of first compound, second compound 0.00316 µM): > 10000 nM
IC50 (curve of first compound, second compound 0.01 µM): > 10000 nM
IC50 [1]: < 31.6 nM
IC50 [2]: < 31.6 nM
IC50 [3]: < 31.6 nM
IC50 [4]: < 31.6 nM
viability, T/C (second compound 0.00316 µM, first compound 0.0316 µM): 89.7%
viability, T/C (second compound 0.00316 µM, first compound 0.1 µM): 91.8%
viability, T/C (second compound 0.00316 µM, first compound 0.316 µM): 88.7%
viability, T/C (second compound 0.00316 µM, first compound 1 µM): 104%
viability, T/C (second compound 0.00316 µM, first compound 3.16 µM): 110%
viability, T/C (second compound 0.00316 µM, first compound 10 µM): 106%
viability, T/C (second compound 0.01 µM, first compound 0.0316 µM): 73.7%
viability, T/C (second compound 0.01 µM, first compound 0.1 µM): 77.9%
viability, T/C (second compound 0.01 µM, first compound 0.316 µM): 84.7%
viability, T/C (second compound 0.01 µM, first compound 1 µM): 86.9%
viability, T/C (second compound 0.01 µM, first compound 3.16 µM): 85.5%
viability, T/C (second compound 0.01 µM, first compound 10 µM): 77.3%
viability, T/C [5]: 40.9%
viability, T/C [6]: 50%
viability, T/C (second compound 0.0316 µM, first compound 0.316 µM): 48.1%
viability, T/C (second compound 0.0316 µM, first compound 1 µM): 49.7%
viability, T/C (second compound 0.0316 µM, first compound 3.16 µM): 54.9%
viability, T/C (second compound 0.0316 µM, first compound 10 µM): 48.7%
viability, T/C [7]: 19.3%
viability, T/C [8]: 22%
viability, T/C (second compound 0.1 µM, first compound 0.316 µM): 22.8%
viability, T/C (second compound 0.1 µM, first compound 1 µM): 21.9%
viability, T/C (second compound 0.1 µM, first compound 3.16 µM): 23%
viability, T/C (second compound 0.1 µM, first compound 10 µM): 20.7%
viability, T/C [9]: 7.52%
viability, T/C [10]: 8.48%
viability, T/C (second compound 0.316 µM, first compound 0.316 µM): 7.48%
viability, T/C (second compound 0.316 µM, first compound 1 µM): 9.8%
viability, T/C (second compound 0.316 µM, first compound 3.16 µM): 10.3%
viability, T/C (second compound 0.316 µM, first compound 10 µM): 7.69%
viability, T/C [11]: 1.88%
viability, T/C [12]: 2.05%
viability, T/C (second compound 1 µM, first compound 0.316 µM): 2.83%
viability, T/C (second compound 1 µM, first compound 1 µM): 2.99%
viability, T/C (second compound 1 µM, first compound 3.16 µM): 3.46%
viability, T/C (second compound 1 µM, first compound 10 µM): 3.33%
